Assays:
Myzus persicae = Myzus persicae test (cabbage leaf dip); type: in vivo; settings: for Kill in % after 6 days: Table A2; for Kill in % after 1 day: Table A1
[1] = system: Phaedon cochleariae larvae; experiment: Phaedon cochleariae larvae test (cabbage leaf dip)

Molecule: pyraclostrobin
- Kill in % after 6 days (Myzus persicae; 100 ppm): 35%

Molecule: CO/C=C(/C(=O)OC)c1ccccc1COc1cccc(C(F)(F)F)n1 [picoxystrobin]
- Kill in % after 1 day (Myzus persicae; 100 ppm): 0%
- Kill in % after 6^d ([1]; 100 ppm, Table B1): 0%

Molecule: CN/C(=N\[N+](=O)[O-])NCc1cnc(Cl)s1 [clothianidin]
- Kill in % after 1 day (Myzus persicae; 0.8 ppm): 40%
- Kill in % after 6 days (Myzus persicae; 0.8 ppm): 30%
- Kill in % after 6^d ([1]; 4 ppm, Table B1): 20%
- Kill in % after 6^d ([1]; 4 ppm, Table B2): 60%

Molecule: CNC(=O)/C(=N/OC)c1ccccc1COc1cc(C)ccc1C [dimoxystrobin]
- Kill in % after 6^d ([1]; 20 ppm, Table B2): 0%
